Structures can show the parent of a compound that is named as a salt. Where two headings read alike, the source gives them in different places.
Legend:
[1] = system: mean arterial blood pressure (MBP) and coronary blood flow (Cor. BF); assay: Hemodynamic effects in anesthetized open-chest dogs (i.v.); assay type: in vivo, mongrel dogs; details: Canis lupus familiaris, anesthetized dogs; for change in vivo at 0.1 mg/kg: 0.1 mg/kg iv; for change in vivo at 0.3 mg/kg: 0.3 mg/kg iv; for change in vivo at 1 mg/kg: 1.0 mg/kg iv; for change in vivo at 0.03 mg/kg: 0.03 mg/kg iv
Description: Mongrel dogs of either sex were anesthetized with pentobarbital sodium (30 mg/kg iv). The animals were artificially ventilated with room air. The chest was opened at the left 4th intercostal space. Mean arterial blood pressure (MBP), heart rate (HR), left ventricular pressure (LVP), max. dLVP/dt, mean pulmonary arterial blood pressure (MPAP), cardiac output (CO) and coronary blood flow (Cor. BF) were measured. The test compounds were injected into the femoral vein. […] BF from control values induced by intravenous injection of test compounds.

Beta-adrenoceptor [2] = target: T1, Beta-adrenoceptor (Rattus norvegicus, UniProt P18090); assay: Beta-adrenoceptor blocking effect in reserpinized rats (isoproterenol chronotropy); assay type: in vivo, male Wistar rats; parameters: The rats were anesthetized with pentobarbital sodium; from tissue; host or cells: heart in the living anesthetized male Wistar rat (reserpine-pretreated, vagotomized); details: isoproterenol 0.1 μg/kg iv, cumulative iv doses, read-out: Beta-Blocking ED50 (50% blockade of positive chronotropic response to isoproterenol)
Description: (§1) The rats were pretreated with reserpine (8 mg/kg ip), 18 hr before experiments. […] The heart rate was measured with a cardiotachometer triggered by the QRS of the ECG (lead II) and recorded on a polygraph. After the Control response to isoproterenol at a dose of 0.1 μg/kg iv was obtained, the test compound was injected iv in increasing doses at 20 min intervals.

Beta-adrenoceptor [3] = target: T1, Beta-adrenoceptor; assay: Intrinsic sympathomimetic activity (ISA) in reserpinized rats; assay type: in vivo, male Wistar rats; parameters: The rats were anesthetized with pentobarbital sodium; from tissue; host or cells: heart in the living anesthetized male Wistar rat (reserpine-pretreated, vagotomized); details: reserpine-pretreated rats, iv
Description: as §1
In this series of experiments, intrinsic sympathomimetic activity (ISA) was also evaluated.

left coronary artery = assay: Coronary vasodilating effects in dogs (intracoronary); assay type: in vivo, mongrel dogs; details: for Duration of action of coronary vasodilating effect: intracoronary (ia)
Description: Mongrel dogs of either sex were anesthetized and ventilated as previously described. A thoracotomy was performed at the 4th intercostal space. Following an intravenous injection of heprin (1000 units/kg), blood from the distal end of the cannulated carotid artery was pumped into circumflex branch of the left coronary artery using a servocontrolled peristaltic pump which maintained a constant perfusion pressure of 120 mmHg by means of a pump controller. An electromagnetic flow probe was inserted in the circit to record blood flow through the cannulated coronary artery. The test compounds were administered directly into the rubber tubing connected close to the coronary artery cannula.

[4] = read-out: percent change of Cor. BF from control
[5] = read-out: percent change of MBP from control

T1 sequence (P18090 whole entry): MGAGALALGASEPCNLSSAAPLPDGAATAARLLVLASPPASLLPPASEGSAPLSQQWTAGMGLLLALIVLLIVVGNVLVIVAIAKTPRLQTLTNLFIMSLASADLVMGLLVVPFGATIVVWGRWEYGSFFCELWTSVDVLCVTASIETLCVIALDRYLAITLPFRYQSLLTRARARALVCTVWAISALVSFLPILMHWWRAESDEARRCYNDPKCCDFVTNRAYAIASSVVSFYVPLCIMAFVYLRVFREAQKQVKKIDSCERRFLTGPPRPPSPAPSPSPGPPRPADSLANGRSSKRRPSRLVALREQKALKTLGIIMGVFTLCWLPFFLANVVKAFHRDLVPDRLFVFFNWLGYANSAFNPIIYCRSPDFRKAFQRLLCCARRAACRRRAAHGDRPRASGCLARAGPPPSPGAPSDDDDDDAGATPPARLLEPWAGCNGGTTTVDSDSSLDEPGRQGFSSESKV

| SMILES | change in vivo at 0.1 mg/kg [1, 4] [%] | change in vivo at 0.1 mg/kg [1, 5] [%] | ED50 (Beta-adrenoceptor [2]) [mg/kg] | ISA (increase in HR) (Beta-adrenoceptor [3]) | change in vivo at 0.3 mg/kg [1, 4] [%] | change in vivo at 0.3 mg/kg [1, 5] [%] | change in vivo at 1 mg/kg [1, 4] [%] | change in vivo at 1 mg/kg [1, 5] [%] | ED100 pap (dose for 100% increase of Cor. BF; maximum response to papaverine 300 μg ia = 100%) (left coronary artery) [μg ia] | Duration of action of coronary vasodilating effect (left coronary artery) [min] | change in vivo at 0.03 mg/kg [1, 4] [%] | change in vivo at 0.03 mg/kg [1, 5] [%] |
| --- | --- | --- | --- | --- | --- | --- | --- | --- | --- | --- | --- | --- |
| COC(=O)C1=C(C)NC(C)=C(C(=O)OCCCCCCNCC(O)COc2ccccc2C#N)C1c1cccc([N+](=O)[O-])c1.Cl (stereo not drawn) [Example 30, 6-[3-(o-cyanophenoxy)-2-hydroxypropylamino]hexyl methyl 2,6-dimethyl-4-(m-nitrophenyl)-1,4-di-hydropyridine-3,5-dicarboxylate hydrochloride] | 12 | -21 | 0.79 | - |  |  |  |  |  |  |  |  |
| COC(=O)C1=C(C)NC(C)=C(C(=O)OCCCCCCNCC(O)COc2ccccc2)C1c1cccc(OC)c1 (stereo not drawn) [Example 46, 6-(2-hydroxy-3-phenoxypropylamino)hexyl methyl 2,6-dimethyl-4-(m-methoxyphenyl)-1,4-dihyrdopyridine-3,5-dicarboxylate hydrochloride] |  |  | 0.66 | + (an increase in HR by 10 to 19 beats/min was observed) | 36 | -21 | 78 | -45 | 98 | > 60 |  |  |
| COC(=O)C1=C(C)NC(C)=C(C(=O)OCCCCCCNCC(O)COc2ccccc2)C1c1cccc(Cl)c1.Cl (stereo not drawn) [Example 43, 6-(2-hydroxy-3-phenoxypropylamino)hexyl methyl 4-(m-chlorophenyl)-2,6-dimethyl-1,4-dihydro-pyridine-3,5-dicarboxylate hydrochloride] |  |  | 0.87 | - | 44 | -22 |  |  | 56 | > 60 |  |  |
| COC(=O)C1=C(C)NC(C)=C(C(=O)OCCCCCCNCC(O)COc2ccccc2)C1c1ccccc1[N+](=O)[O-] (stereo not drawn) [Example 41, 6-(2-hydroxy-3-phenoxypropylamino)hexyl methyl 2,6-dimethyl-4-(o-nitrophenyl)-1,4-dihydropyridine-3,5-dicarboxylate] |  |  | 0.58 | +++ (an increase in HR by above 30 beats/min) | 45 | -34 |  |  | 43 | > 60 |  |  |
| CCOC(=O)C1=C(C)NC(C)=C(C(=O)OCCCCCCNCC(O)COc2ccccc2)C1c1cccc([N+](=O)[O-])c1 (stereo not drawn) [Example 18, Ethyl 6-(2-hydroxy-3-phenoxy/propylamino)hexyl 2,6-dimethyl-4-(m-nitrophenyl)-1,4-dihydroxypyridine-3,5-dicarboxylate] |  |  | 1.25 | - | 31 | -22 |  |  | 67 | > 60 |  |  |
| COC(=O)C1=C(C)NC(C)=C(C(=O)OCCCCCCCCCCNCC(O)COc2ccccc2)C1c1cccc([N+](=O)[O-])c1.Cl (stereo not drawn) [Example 13, 10-(2-hydroxy-3-phenoxy-propylamino)decyl methyl 2,6-dimethyl-4-(m-nitro-phenyl)-1,4-dihydropyridine-3,5-dicarboxylate hydrochloride] |  |  | 0.72 | + (an increase in HR by 10 to 19 beats/min was observed) |  |  |  |  | 12 | 60 | 102 | -21 |
| COCCOC(=O)C1=C(C)NC(C)=C(C(=O)OCCCCCCNCC(O)COc2ccccc2)C1c1cccc([N+](=O)[O-])c1 (stereo not drawn) [Example 22, 6-(2-hydroxy-3-phenoxy-propylamino)hexyl 2-methoxyethyl-2,6-dimethyl-4-(m-nitrophenyl-3,5-dicarboxylate hydrochloride] |  |  | 0.82 | - | 118 | -22 |  |  | 128 | 60 |  |  |
| COC(=O)C1=C(C)NC(C)=C(C(=O)OCCCCCCNCC(O)COc2ccccc2)C1c1cccc(C)c1.Cl (stereo not drawn) [Example 48, 6-(2-hydroxy-3-phenoxypropylamino)hexyl methyl 2,6-dimethyl-4-(m-methylphenyl)-1,4-dihydro-pyridine-3,5-dicarboxylate hydrochloride] |  |  | 0.68 | - | 71 | -20 | 92 | -43 | 76 | 60 |  |  |
| CC1=C(C(=O)OCCCCCCNCC(O)COc2ccccc2)C(c2cccc([N+](=O)[O-])c2)C(C(=O)OC(C)(C)C)=C(C)N1.Cl (stereo not drawn) [Example 21, tert-butyl 6-(2-hydroxy-3-phenoxypropylamino)hexyl 2,6-dimethyl-4-(m-nitrophenyl)-1,4-dihydropyridine-3,5-dicarboxylate hydrochloride] |  |  | 1.01 | + (an increase in HR by 10 to 19 beats/min was observed) |  |  | 34 | -28 | 137 | 60 |  |  |
| COC(=O)C1=C(C)NC(C)=C(C(=O)OCCCCNCC(O)COc2ccccc2)C1c1cccc([N+](=O)[O-])c1.Cl (stereo not drawn) [Example 11, 4-(2-hydroxy-3-phenoxy-propylamino)butyl methyl 2,6-dimethyl-4-(m-nitro-phenyl)-1,4-dihydropyridine-3,5-dicarboxylate hydrochloride] | 35 | -16 | 0.64 | ++ (an increase in HR by 20 to 29 beats/min was observed) |  |  | 193 | -41 | 150 | 60 |  |  |
| COC(=O)C1=C(C)NC(C)=C(C(=O)OCCCCCCNCC(O)COc2ccccc2)C1c1ccccc1OC.Cl (stereo not drawn) [Example 47, 6-(2-hydroxy-3-phenoxypropylamino)hexyl methyl 2,6-dimethyl-4-(o-methoxyphenyl)-1,4-dihydropyridine-3,5-dicarboxylate hydrochloride] |  |  | 0.11 | +++ (an increase in HR by above 30 beats/min) | 30 | -34 | 57 | -44 | 245 | > 60 |  |  |
| COC(=O)C1=C(C)NC(C)=C(C(=O)OCCCCCCNCC(O)COc2ccccc2)C1c1cccc(C(F)(F)F)c1 (stereo not drawn) [Example 7, 6-(2-hydroxy-3-phenoxypropylamino)hexyl methyl 2,6-dimethyl-4-(m-trifluoromethylphenyl)-1,4-dihydropyridin-3,5-dicarboxylate] |  |  | 1.93 | - |  |  | 24 | -20 | 100 | > 60 |  |  |
| COC(=O)C1=C(C)NC(C)=C(C(=O)OCCCCCCNCC(O)COc2ccccc2Cl)C1c1cccc([N+](=O)[O-])c1 (stereo not drawn) [Example 32, 6-[3-(o-chlorophenoxy)-2-hydroxypropylamino]hexyl methyl 2,6-dimethyl-4-(m-nitrophenyl)-1,4-dihyrdopyridine-3,5-dicarboxylate hydrochloride] | 35 | -18 | 1.18 | - | 93 | -36 |  |  |  |  |  |  |

From patent US5591757A, “Dihydropyridine composition” (Yamanouchi Pharmaceutical Co., Ltd., priority 1984, dated 1997)
